Source: patent US11395847B2, “Acylated GLP-1/GLP-2 dual agonists” (Zealand Pharma A/S, priority 2016, dated 2022)
Where two headings read alike, the source gives them in different places. Where a SMILES comes first, the peptide text is derived from it.

How the values were obtained:
[1] = Chemical stability (RP-HPLC normalized purity after incubation at 40° C.); format: physicochemical; settings: 14-day incubation, 0.2 mg/ml, normalized purity (area-%); for pH 7 normalized stability: pH 7, 40° C.; for pH 6 normalized stability: pH 6, 40° C.
How it was run: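 Peptide at 0.2 mg/ml final in water adjusted to pH 6, 7, 7.5 or 9, incubated at 40° C for 14 days. Purity measured as main-peak area-% by C18 RP-HPLC (acetonitrile/TFA/water gradient, UV 220 nm) and normalized to T=0 set at 100 for each pH.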

human GLP-2 receptor = target: T1, human GLP-2 receptor (Homo sapiens, UniProt O95838, D470N); assay: GLP-2 receptor potency assay (cAMP ALPHASCREEN, HEK293 cells stably expressing GLP-2 R); format: cell-based; settings: cAMP response, HEK293 cells expressing human GLP-2 R; read-out: EC50 GLP-2
T1 construct: expressed in transfected cells
T1 sequence (O95838 1-553 D470N): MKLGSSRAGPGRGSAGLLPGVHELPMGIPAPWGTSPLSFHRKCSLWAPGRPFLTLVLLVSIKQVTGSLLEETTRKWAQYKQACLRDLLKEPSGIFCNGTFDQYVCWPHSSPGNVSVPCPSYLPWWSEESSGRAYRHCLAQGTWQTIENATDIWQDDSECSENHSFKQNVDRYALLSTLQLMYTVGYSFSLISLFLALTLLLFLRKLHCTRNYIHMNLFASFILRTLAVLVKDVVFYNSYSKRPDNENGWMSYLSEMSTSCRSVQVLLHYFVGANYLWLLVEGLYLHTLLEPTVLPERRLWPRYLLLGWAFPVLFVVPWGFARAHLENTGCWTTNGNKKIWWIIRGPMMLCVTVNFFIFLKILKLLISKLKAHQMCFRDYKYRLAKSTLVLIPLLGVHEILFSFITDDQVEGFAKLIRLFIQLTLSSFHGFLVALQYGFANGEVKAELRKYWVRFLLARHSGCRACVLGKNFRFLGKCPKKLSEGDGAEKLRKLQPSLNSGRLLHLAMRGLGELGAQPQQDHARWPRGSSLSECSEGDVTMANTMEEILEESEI
How it was run: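 HEK293 clones stably transfected with the human GLP-2 receptor, selected with G418, were used. Intracellular cAMP was quantified by AlphaScreen. Responses were normalised to positive and vehicle controls, and EC50 and maximal response were taken from concentration-response curves.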

human GLP-1 receptor = target: T2, human GLP-1 receptor (Homo sapiens, UniProt P43220); assay: GLP-1 receptor potency assay (cAMP ALPHASCREEN, HEK293 cells stably expressing GLP-1 R); format: cell-based; settings: cAMP response, HEK293 cells expressing human GLP-1 R
T2 construct: expressed in transfected cells
T2 sequence (P43220 24-463): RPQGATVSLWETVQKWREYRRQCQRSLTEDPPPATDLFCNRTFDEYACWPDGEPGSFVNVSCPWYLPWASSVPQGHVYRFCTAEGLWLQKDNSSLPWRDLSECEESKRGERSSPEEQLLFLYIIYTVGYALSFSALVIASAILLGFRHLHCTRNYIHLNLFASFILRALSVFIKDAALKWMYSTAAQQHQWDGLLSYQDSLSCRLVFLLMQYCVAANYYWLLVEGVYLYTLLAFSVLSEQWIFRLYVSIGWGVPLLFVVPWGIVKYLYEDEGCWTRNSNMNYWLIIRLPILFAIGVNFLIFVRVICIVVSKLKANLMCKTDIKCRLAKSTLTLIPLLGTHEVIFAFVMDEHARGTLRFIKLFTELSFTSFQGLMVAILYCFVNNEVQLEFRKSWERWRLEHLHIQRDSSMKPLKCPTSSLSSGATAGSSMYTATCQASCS
How it was run: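 Clonal HEK293 line stably transfected with human GLP-1R (G418-selected) was treated with test compounds and the cAMP response quantified by ALPHASCREEN. Signals were normalized to positive control and vehicle, with EC50 and maximal response taken from concentration-response curves.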

[2] = Solubility assessment (turbidity absorbance at 325 nm); format: physicochemical
How it was run: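 Peptide stock at 2 mg/ml in water at pH 2.5 diluted 1:1 into 100 mM acetate (pH 4.0, 5.0), histidine (pH 6.0, 7.0) or phosphate (pH 6.0, 7.0, 7.5) buffer. Absorbance at 280 and 325 nm read at ambient temperature (typically 25 °C), single samples (n=1).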

[3] = test system: Normal chow-fed C57BL/6J male mice; assay: Effect on fasting glucose and intestinal weight in normal mice; format: in vivo
Protocol: Normal chow-fed C57BL/6J male mice were used. The mice were kept in standard housing conditions, light-, temperature-, and humidity-controlled room (12:12 h light-dark cycle, with lights on at 06.00-18.00 h; 20-22° C.; 50-80% relative humidity). Each dosing group consisted of 6 animals. Mice were dosed once daily with 100 nmol/kg with the test compounds or vehicle for 4 days via subcutaneous administration.
On day 0 mice were fasted and blood glucose levels measured after a single s.c. injection with peptides. Animals were sacrificed 24 hours after final dosing on day 3, and small intestinal wet weights were measured.

pH 7 normalized stability [1]	EC50 (human GLP-2 receptor) [nM]	EC50 (human GLP-1 receptor) [nM]	pH 6 normalized stability [1]	solubility ([2]; 100 mM acetate buffer pH 4.0, ambient temperature, read-out: Solubility Acetate buffer pH 4) [µg/mL]	solubility ([2]; 100 mM acetate buffer pH 5.0, ambient temperature, read-out: Solubility Acetate buffer pH 5) [µg/mL]	solubility ([2]; 100 mM histidine buffer pH 6.0, ambient temperature, read-out: Solubility Histidine buffer pH 6) [µg/mL]	solubility ([2]; 100 mM histidine buffer pH 7.0, ambient temperature, read-out: Solubility Histidine buffer pH 7) [µg/mL]	solubility ([2]; 100 mM phosphate buffer pH 6.0, ambient temperature, read-out: Solubility Phosphate buffer pH 6) [µg/mL]	solubility ([2]; 100 mM phosphate buffer pH 7.0, ambient temperature, read-out: Solubility Phosphate buffer pH 7) [µg/mL]	solubility ([2]; 100 mM phosphate buffer pH 7.5, ambient temperature, read-out: Solubility Phosphate buffer pH 7.5) [µg/mL]	Structure (SMILES)	Small intestinal wet weight ([3]; 100 nmol/kg s.c. once daily for 4 days, sacrificed 24 hours after final dosing) [g]	Fasting blood glucose ([3]; 100 nmol/kg s.c., day 0 after a single injection, fasted mice) [mM]
A (>90% normalised stability)	0.38	0.31	–	–	–	–	–	–	–	–	CC[C@H](C)[C@H](NC(=O)[C@H](Cc1ccccc1)NC(=O)[C@H](CC(=O)O)NC(=O)[C@H](CCCNC(=N)N)NC(=O)[C@H](C)NC(=O)[C@H](C)NC(=O)[C@H](CCC(N)=O)NC(=O)[C@H](CCCCNC(=O)CC[C@H](NC(=O)CCCCCCCCCCCCCCCCC(=O)O)C(=O)O)NC(=O)[C@H](CC(=O)O)NC(=O)[C@H](CC(C)C)NC(=O)[C@@H](NC(=O)[C@@H](NC(=O)[C@H](C)NC(=O)[C@H](CC(C)C)NC(=O)[C@H](CCC(=O)O)NC(=O)[C@H](CO)NC(=O)[C@@H](NC(=O)[C@H](Cc1ccccc1)NC(=O)[C@H](CO)NC(=O)CNC(=O)[C@H](CCC(=O)O)NC(=O)C(C)(C)NC(=O)[C@@H](N)Cc1c[nH]cn1)[C@@H](C)O)[C@@H](C)O)[C@@H](C)CC)C(=O)N[C@@H](C)C(=O)N[C@@H](Cc1c[nH]c2ccccc12)C(=O)N[C@@H](CC(C)C)C(=O)N[C@H](C(=O)N[C@@H](CCCNC(=N)N)C(=O)N[C@@H](Cc1c[nH]cn1)C(=O)N[C@@H](CCCCN)C(=O)N[C@H](C(=O)N[C@H](C(=O)N[C@@H](CC(=O)O)C(=O)O)[C@@H](C)O)[C@@H](C)CC)[C@@H](C)CC [Compound 30] (HELM PEPTIDE1{H.[Aib].E.G.S.F.T.S.E.L.A.T.I.L.D.K.Q.A.A.R.D.F.I.A.W.L.I.R.H.K.I.T.D}|PEPTIDE2{[O=C(O)CCCCCCCCCCCCCCCCC(=O)[*:2]].[gGlu]}$PEPTIDE1,PEPTIDE2,16:R3-2:R2$$$V2.0)	–	–
A (>90% normalised stability)	0.24	0.27	A (>90% normalised stability)	–	–	–	–	–	–	–	CC[C@H](C)[C@H](NC(=O)[C@H](Cc1ccccc1)NC(=O)[C@H](CC(=O)O)NC(=O)[C@H](CCCNC(=N)N)NC(=O)[C@H](C)NC(=O)[C@H](C)NC(=O)[C@H](CCC(N)=O)NC(=O)[C@H](CCCCNC(=O)CC[C@H](NC(=O)CCCCCCCCCCCCCCCCC(=O)O)C(=O)O)NC(=O)[C@H](CC(=O)O)NC(=O)[C@H](CC(C)C)NC(=O)[C@@H](NC(=O)[C@@H](NC(=O)[C@H](C)NC(=O)[C@H](CC(C)C)NC(=O)[C@H](CCC(=O)O)NC(=O)[C@H](CO)NC(=O)[C@@H](NC(=O)[C@H](Cc1ccccc1)NC(=O)[C@H](CO)NC(=O)CNC(=O)[C@H](CCC(=O)O)NC(=O)C(C)(C)NC(=O)[C@@H](N)Cc1c[nH]cn1)[C@@H](C)O)[C@@H](C)O)[C@@H](C)CC)C(=O)N[C@@H](C)C(=O)N[C@@H](Cc1c[nH]c2ccccc12)C(=O)N[C@@H](CC(C)C)C(=O)N[C@H](C(=O)N[C@@H](CO)C(=O)N[C@@H](Cc1c[nH]cn1)C(=O)N[C@@H](CCCCN)C(=O)N[C@H](C(=O)N[C@H](C(=O)N[C@@H](CC(=O)O)C(=O)O)[C@@H](C)O)[C@@H](C)CC)[C@@H](C)CC [Compound 31] (HELM PEPTIDE1{H.[Aib].E.G.S.F.T.S.E.L.A.T.I.L.D.K.Q.A.A.R.D.F.I.A.W.L.I.S.H.K.I.T.D}|PEPTIDE2{[O=C(O)CCCCCCCCCCCCCCCCC(=O)[*:2]].[gGlu]}$PEPTIDE1,PEPTIDE2,16:R3-2:R2$$$V2.0)	–	–
B (>80% stability)	0.24	0.13	A (>90% normalised stability)	< 1000	< 1000	≥ 1000	≥ 1000	≥ 1000	≥ 1000	≥ 1000	CC[C@H](C)[C@H](NC(=O)[C@H](CC(C)C)NC(=O)[C@H](Cc1c[nH]c2ccccc12)NC(=O)[C@H](C)NC(=O)[C@@H](NC(=O)[C@H](Cc1ccccc1)NC(=O)[C@H](CC(=O)O)NC(=O)[C@H](CCCNC(=N)N)NC(=O)[C@H](C)NC(=O)[C@H](C)NC(=O)[C@H](CCC(N)=O)NC(=O)[C@H](CCCCNC(=O)CC[C@H](NC(=O)CCCCCCCCCCCCCCCCC(=O)O)C(=O)O)NC(=O)[C@H](CC(=O)O)NC(=O)[C@H](CC(C)C)NC(=O)[C@@H](NC(=O)[C@@H](NC(=O)[C@H](C)NC(=O)[C@H](CC(C)C)NC(=O)[C@H](CCC(=O)O)NC(=O)[C@H](CO)NC(=O)[C@@H](NC(=O)[C@H](Cc1ccccc1)NC(=O)[C@@H](NC(=O)CNC(=O)[C@H](CCC(=O)O)NC(=O)C(C)(C)NC(=O)[C@@H](N)Cc1c[nH]cn1)[C@@H](C)O)[C@@H](C)O)[C@@H](C)O)[C@@H](C)CC)[C@@H](C)CC)C(=O)N[C@@H](C)C(=O)N[C@@H](Cc1c[nH]cn1)C(=O)N[C@@H](CCCCN)C(=O)N[C@H](C(=O)N[C@H](C(=O)N[C@@H](CC(=O)O)C(=O)O)[C@@H](C)O)[C@@H](C)CC [Compound 23] (HELM PEPTIDE1{H.[Aib].E.G.T.F.T.S.E.L.A.T.I.L.D.K.Q.A.A.R.D.F.I.A.W.L.I.A.H.K.I.T.D}|PEPTIDE2{[O=C(O)CCCCCCCCCCCCCCCCC(=O)[*:2]].[gGlu]}$PEPTIDE1,PEPTIDE2,16:R3-2:R2$$$V2.0)	–	–
–	–	–	–	–	–	–	–	–	–	–	CC[C@H](C)[C@H](NC(=O)[C@H](Cc1ccccc1)NC(=O)[C@H](CC(=O)O)NC(=O)[C@H](CCCNC(=N)N)NC(=O)[C@H](C)NC(=O)[C@H](C)NC(=O)[C@H](CCCCNC(=O)CC[C@H](NC(=O)CCCCCCCCCCCCCCCCC(=O)O)C(=O)O)NC(=O)CNC(=O)[C@H](CC(=O)O)NC(=O)[C@H](CC(C)C)NC(=O)[C@@H](NC(=O)[C@@H](NC(=O)[C@H](C)NC(=O)[C@H](CC(C)C)NC(=O)[C@H](CCC(=O)O)NC(=O)[C@H](CO)NC(=O)[C@@H](NC(=O)[C@H](Cc1ccccc1)NC(=O)[C@H](CO)NC(=O)CNC(=O)[C@H](CCC(=O)O)NC(=O)C(C)(C)NC(=O)[C@@H](N)Cc1c[nH]cn1)[C@@H](C)O)[C@@H](C)O)[C@@H](C)CC)C(=O)N[C@@H](C)C(=O)N[C@@H](Cc1c[nH]c2ccccc12)C(=O)N[C@@H](CC(C)C)C(=O)N[C@H](C(=O)N[C@@H](CCC(=O)O)C(=O)N[C@@H](Cc1c[nH]cn1)C(=O)N[C@@H](CCCCN)C(=O)N[C@H](C(=O)N[C@H](C(=O)N[C@@H](CC(=O)O)C(=O)O)[C@@H](C)O)[C@@H](C)CC)[C@@H](C)CC [Compound 8] (HELM PEPTIDE1{H.[Aib].E.G.S.F.T.S.E.L.A.T.I.L.D.G.K.A.A.R.D.F.I.A.W.L.I.E.H.K.I.T.D}|PEPTIDE2{[O=C(O)CCCCCCCCCCCCCCCCC(=O)[*:2]].[gGlu]}$PEPTIDE1,PEPTIDE2,17:R3-2:R2$$$V2.0)	1.27	5.28
